Data: patent US20100210597A1, “C21-Deoxy Ansamycin Derivatives as Antitumor Agents” (priority 2007, published 2010)
Converted amounts (≈) assume the structure as drawn. “And” between values parts separate entries of the source, which are not always exact repeats. Equal values may be shown once. Read-outs that look alike come from different tables or passages of the source. Each block holds one compound with its values, some of them ahead of it.

Legend:
Hsp90 = Hsp90 (Homo sapiens, UniProt P07900); conditions: cited from earlier work
[1] = Aqueous solubility by direct dissolution; assay type: physicochemical; conditions: pH 4.5, aqueous buffer, aqueous 5 mM citrate, pH 4.5; limit not tested
Text: It is not possible to measure the solubility of 20 and 23 by this method due to their intrinsic high aqueous solubility.

[2] = In vitro cleavage assay in buffer; assay type: physicochemical; conditions: for half-life at 0.1 mg/ml: read-out: half-life of disappearance (converted)
Protocol: Samples were monitored by LC-UV, on an Agilent 1100 HPLC. Chromatography was achieved over a Phenomenex Hyperclone column, BDS C18 3 u (150×4.6 mm):
Mobile phase A: 0.1% Formic acid in water Mobile phase B: 0.1% Formic acid in acetonitrile Flow rate: 1 mL/minute: Gradient, t=0 mins, B=10%; t=2 mins, B=10%; t=20 mins, B=100%.
Compound 23 elutes at 12.1 mins and compound 17 elutes at 11.2 minutes in these conditions.
0.05 ml injections were made, repeatedly from the same sample every 3.18 hours, for 50 hours. the ambient temperature was 23 degrees C. The UV response was measured for each time point for compound 23 and 17. The half-life of disappearance of compound 23 was calculated thus:
the natural logarithm of the response was plotted with respect to time (in hours). The slope and fit of the resultant line was calculated and the half life, t1/2=(In 2)/lambda. Where lambda is the slope of the graph.

[3] = Solubility assay in 2% DMSO in PBS; assay type: physicochemical; conditions: 2% DMSO in PBS pH 7.3, 0.5 mM, shaken up to six hours
Protocol: To analyse the solubilities of 17-AAG, geldanamycin, 18,21-dihydromacbecin and macbecin, solutions (25 mM) of the test compounds were prepared by dissolving 3-5 mg aliquots in the appropriate amount of DMSO.
Aliquots (0.01 mL) were added to 0.490 mL of pH 7.3 PBS in glass vials. For each time point, 3 PBS vials were prepared in amber glass vials. For the six hour time point triplicate aliquots in DMSO were also prepared.
The resulting 0.5 mM solutions were shaken for up to six hours, with vials removed for analysis at 1, 3 and 6 hours. Samples were analysed by HPLC (0.025 mL injections). Compounds were quantified by peak area measurement at 274 nm.
Solubility in 2% DMSO in PBS at each time point was determined by comparing total peak areas for each chromatogram with mean total peak area for chromatograms produced from the corresponding 6 hour DMSO solutions. (Mean total peak area in DMSO solutions was assumed to be equivalent to a 0.5 mM solution). The solubility of compound 17 was measured by a thermodynamic assay as described in the general methods.

[4] = tested on: panel of human tumour cell lines; test: Monolayer proliferation assay, mean across cell line panel; assay type: cell-based; conditions: geometric mean of all replicates across six cell lines
Protocol: In vitro evaluation of compounds for anticancer activity in a panel of human tumour cell lines in a monolayer proliferation assay was carried out at the Oncotest Testing Facility, Institute for Experimental Oncology, Oncotest GmbH, Freiburg.
The Oncotest cell lines are established from human tumor xenografts as described by Roth et al., (1999). The origin of the donor xenografts is described by Fiebig et al., (1999). Other cell lines are either obtained from the NCl (DU145, MCF-7) or purchased from DSMZ, Braunschweig, Germany.
All cell lines, unless otherwise specified, are grown at 37° C. in a humidified atmosphere (95% air, 5% CO2) in a ‘ready-mix’ medium containing RPMI 1640 medium, 10% fetal calf serum, and 0.1 mg/mL gentamicin (PAA, Cölbe, Germany).
A modified propidium iodide assay was used to assess the effects of the test compound(s) on the growth of six human tumour cell lines (Dengler et al., (1995)).
Briefly, cells are harvested from exponential phase cultures by trypsinization, counted and plated in 96 well flat-bottomed microtitre plates at a cell density dependent on the cell line (5-10.000 viable cells/well). […] After thawing the plates, fluorescence was measured using the Cytofluor 4000 microplate reader (excitation 530 nm, emission 620 nm), giving a direct relationship to the total number of viable cells.
Growth inhibition is expressed as treated/control×100 (% T/C). […]

Compound: CO[C@H]1C[C@H](C)Cc2cc(O)cc(c2)NC(=O)/C=C/CC[C@H](OC)[C@@H](OC(N)=O)/C(C)=C/[C@H](C)[C@H]1O [KOSN1559]
binding affinity to Hsp90, greater than 17-AAG (Hsp90; relative to 17-AAG): 8 fold
binding affinity to Hsp90, greater than geldanamycin (Hsp90; relative to geldanamycin): 4 fold

Compound: CNCCN(C)C(=O)Oc1cc2cc(c1)NC(=O)/C(C)=C/CC[C@H](C)[C@@H](OC(N)=O)/C(C)=C/[C@H](C)[C@@H](O)[C@@H](OC)C[C@H](C)C2 [Compound 23, 18-O-(N,N′-dimethylethylenediaminecarbamoyl)-4,5-dihydro-11-O-demethyl-15-demethoxy-18,21-didehydro-18-hydroxy-21-deoxomacbecin]
solubility [1]: ≥ 3000 µg/mL and ≥ 4600 µM
half-life of disappearance ([2]; 0.1 M potassium phosphate buffer pH 4.5, 23 degrees C): not calculable (zero slope)
half-life at 0.1 mg/ml ([2]; 0.1 M potassium phosphate buffer pH 5.9, 23 degrees C): 69.3 h
half-life at 0.1 mg/ml ([2]; 0.1 M potassium phosphate buffer pH 6.5, 23 degrees C): 11.9 h
half-life at 0.1 mg/ml ([2]; 0.1 M potassium phosphate buffer pH 7.4, 23 degrees C): 2 h
half-life at 0.1 mg/ml ([2]; 5% glucose, 23 degrees C): 32 h
product of cleavage ([2]; by LC-UV-MS): compound 17

solubility [3]: 171 µM (≈ 100 µg/mL)
Compound: C=CCNC1=C2C[C@@H](C)C[C@H](OC)[C@H](O)[C@@H](C)/C=C(\C)[C@H](OC(N)=O)[C@@H](OC)/C=C\C=C(/C)C(=O)NC(=CC1=O)C2=O [Compound 17-AAG, 17-(allylamino)-17-desmethoxy geldanamycin]

Compound: COC1CC(C)C(OC)c2cc(O)cc(c2O)NC(=O)/C(C)=C\C=C/C(C)C(OC(N)=O)/C(C)=C\C(C)C1OC (stereo not drawn) [18,21-dihydromacbecin]
solubility [3]: 136 µM (≈ 76.3 µg/mL)

Compound: CO[C@H]1[C@@H](OC)C[C@H](C)[C@@H](OC)C2=CC(=O)C=C(NC(=O)/C(C)=C/C=C\[C@H](C)[C@@H](OC(N)=O)/C(C)=C/[C@@H]1C)C2=O [macbecin, reference compound]
average IC70 value across the cell-line panel [4]: 0.21 mg/L
